{
  "source": "patent US9993505B2",
  "about": "“Innervation of engineered structures” (WAKE FOREST UNIVERSITY HEALTH SCIENCES, priority 2012, dated 2018)",
  "key": {"[1]": {"test_system": "intrinsically innervated rabbit colon circular smooth muscle construct", "assay": "Real time force generation of bioengineered colon smooth muscle construct, intrinsically innervated (Example 2)", "format": "cell-based"}, "[2]": {"test_system": "initially non-innervated rabbit colon circular smooth muscle construct", "assay": "Real time force generation of bioengineered colon smooth muscle construct, initially non-innervated (Example 2)", "format": "cell-based"}, "[3]": {"test_system": "initially non-innervated internal anal sphincter (IAS) smooth muscle construct", "assay": "Real time force generation of bioengineered IAS construct, initially non-innervated, placed 1 mm away from the innervated construct (Example 1)", "format": "cell-based, rabbit"}, "[4]": {"test_system": "intrinsically innervated internal anal sphincter (IAS) smooth muscle construct", "assay": "Real time force generation of bioengineered IAS construct, initially intrinsically innervated (Example 1)", "format": "cell-based, rabbit"}},
  "data": [
    {"compound": "[Cl-].[K+]", "note": "[KCl, potassium chloride]", "values": [
      {"measurement": "average contraction induced by KCl", "setting": "[1]", "result": "300±24", "unit": "μN"},
      {"measurement": "average contraction induced by KCl", "setting": "[2]", "result": "224±42", "unit": "μN"}
    ]},
    {"compound": "CC(=O)OCC[N+](C)(C)C", "note": "[Acetylcholine, acetylcholine]", "values": [
      {"measurement": "average contraction induced by Ach", "setting": "[1]; 1 μM Ach, innervated colon constructs", "result": "150±24", "unit": "μN"},
      {"measurement": "average contraction induced by Ach", "setting": "[2]; 1 μM Ach, non-innervated colon constructs", "result": "130±28", "unit": "μN"},
      {"measurement": "force generation induced by acetylcholine", "setting": "[3]; Acetylcholine 1 μM, day 20, initially non-innervated IAS construct", "result": 80, "unit": "μN"},
      {"measurement": "force generation induced by acetylcholine", "setting": "[4]; Acetylcholine 1 μM, day 20, innervated IAS construct", "result": 153, "unit": "μN"}
    ]},
    {"compound": "vasoactive intestinal peptide [VIP]", "values": [
      {"measurement": "maximal relaxation induced by VIP", "setting": "[1]; 1 μM VIP, innervated colon constructs", "result": "145±15", "unit": "μN"},
      {"measurement": "maximal relaxation induced by VIP", "setting": "[2]; 1 μM VIP, non-innervated colon constructs", "result": "120±18", "unit": "μN"}
    ]},
    {"compound": "NC1=N[C@H](O)[C@H]2[C@H]3O[C@]4(O)O[C@@H]([C@@H](O)[C@@]2(N1)[C@@H]4O)[C@]3(O)CO", "note": "[TTX, tetrodotoxin]", "values": [
      {"measurement": "attenuation of peak maximal Ach contraction in the presence of TTX", "setting": "[1]", "result": "50-60%"},
      {"measurement": "effect of TTX preincubation on response to EFS", "setting": "[1]", "result": "completely abolished"},
      {"measurement": "inhibition of VIP-induced relaxation in the presence of TTX", "setting": "[1]", "result": 60, "unit": "%"},
      {"measurement": "effect of TTX on EFS-induced relaxation", "setting": "[2]", "result": "completely blocked"},
      {"measurement": "effect of TTX on maximal Ach contraction", "setting": "[2]", "result": "reduced the maximal contraction"},
      {"measurement": "inhibition of VIP-induced relaxation in the presence of TTX", "setting": "[2]", "result": 50, "unit": "%"},
      {"measurement": "inhibition of EFS-induced relaxation by pre-treatment", "setting": "[3]", "result": "completely inhibited"},
      {"measurement": "inhibition of acetylcholine-induced force generation by pre-treatment", "setting": "[3]", "result": 40, "unit": "%"},
      {"measurement": "inhibition of EFS-induced relaxation by pre-treatment", "setting": "[4]", "result": "completely inhibited"},
      {"measurement": "inhibition of acetylcholine-induced force generation by pre-treatment", "setting": "[4]", "result": 58, "unit": "%"}
    ]},
    {"compound": "CN1[C@@H]2CC[C@H]1C[C@@H](OC(=O)C(CO)c1ccccc1)C2", "note": "(some centres unmarked) [atropine]", "values": [
      {"measurement": "inhibition of acetylcholine-induced force generation by pre-treatment", "setting": "[3]", "result": 75, "unit": "%"},
      {"measurement": "inhibition of acetylcholine-induced force generation by pre-treatment", "setting": "[4]", "result": 90, "unit": "%"}
    ]}
  ]
}
